Data as given in PubChem BioAssay (NCI).
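Protocol summary: plate cells (96-well), add compound at 5 concentrations, incubate 48 h, interpolate endpoints linearly. GI50 is the concentration that inhibits growth by half. TGI is the concentration that stops growth completely.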

system: EKVX NSCLC; test: NCI tumour cell line growth inhibition, 48 h

Compound	TGI [µM]
CC(OC(C)(C)C)[C@H](NC(=O)OCC(Cl)(Cl)Cl)C(=O)O (stereo not given in full)	> 100
O=C(O)CCC(NC(=O)c1ccc(Nc2nc3cc(C(F)(F)F)ccc3nc2-c2ccccc2)cc1)C(=O)O (stereo not given)	> 100
c1ccc(CCNc2ccccn2)nc1	> 100
NCc1ccccc1-c1c2nc(c(-c3ccccc3CN)c3ccc([nH]3)c(-c3ccccc3CN)c3nc(c(-c4ccccc4CN)c4ccc1[nH]4)C=C3)C=C2	48.7

system: M14 melanoma; test: NCI tumour cell line growth inhibition, 48 h

Compound	TGI [µM]
Cn1c(=O)c(-c2ccccc2)c(N=[N+]=[N-])c2ccccc21	> 100
CCC(/C=C/C1OC(=O)C=CC1C)=C\C(C)C/C=C/C(C)=C/C(C)C(=O)C(C)C(O)C(C)C/C(C)=C/C(=O)O (stereo not given)	3.68e-05
CN(C)CCCN1CCC2(CCC(C(C)(C)C)CC2)CC1	3.46
Cc1[nH]nc(C(F)(F)F)c1N=NN1CCOCC1	32.8
S=C(S)NCNC(=S)S.[Zn+2]	> 100
CC1(CCOCc2ccccc2)NC(=O)NC1=O (stereo not given)	> 100
CC(OC(C)(C)C)[C@H](NC(=O)OCC(Cl)(Cl)Cl)C(=O)O (stereo not given in full)	> 100
c1ccc(CCNc2ccccn2)nc1	> 100
NCc1ccccc1-c1c2nc(c(-c3ccccc3CN)c3ccc([nH]3)c(-c3ccccc3CN)c3nc(c(-c4ccccc4CN)c4ccc1[nH]4)C=C3)C=C2	48.7

system: CCRF-CEM leukemia; test: NCI tumour cell line growth inhibition, 48 h

Compound	TGI [µM]	GI50 [nM]
Cn1c(=O)c(-c2ccccc2)c(N=[N+]=[N-])c2ccccc21	> 100	
CCC(/C=C/C1OC(=O)C=CC1C)=C\C(C)C/C=C/C(C)=C/C(C)C(=O)C(C)C(O)C(C)C/C(C)=C/C(=O)O (stereo not given)		< 0.001
CC1(C)N=C(N)N=C(N)N1c1ccc(CCc2ccccc2)cc1	> 100	
CN(C)CCCN1CCC2(CCC(C(C)(C)C)CC2)CC1	4.82	
Cc1[nH]nc(C(F)(F)F)c1N=NN1CCOCC1	10.8	
C=C(C)[C@@H]1CC[C@]2(C(=O)NC3CCCCC3)CC[C@]3(C)[C@H](CC[C@@H]4[C@@]5(C)CCCNC(C)(C)[C@@H]5CC[C@]43C)[C@@H]12	6.68	2300
S=C(S)NCNC(=S)S.[Zn+2]	> 100	
CC(OC(C)(C)C)[C@H](NC(=O)OCC(Cl)(Cl)Cl)C(=O)O (stereo not given in full)	> 100	
O=C(O)CCC(NC(=O)c1ccc(Nc2nc3cc(C(F)(F)F)ccc3nc2-c2ccccc2)cc1)C(=O)O (stereo not given)	> 100	
c1ccc(CCNc2ccccn2)nc1	> 100	
NCc1ccccc1-c1c2nc(c(-c3ccccc3CN)c3ccc([nH]3)c(-c3ccccc3CN)c3nc(c(-c4ccccc4CN)c4ccc1[nH]4)C=C3)C=C2	27.1	

system: HL-60(TB) leukemia; test: NCI tumour cell line growth inhibition, 48 h

Compound	GI50 [nM]	TGI [µM]
CCC(/C=C/C1OC(=O)C=CC1C)=C\C(C)C/C=C/C(C)=C/C(C)C(=O)C(C)C(O)C(C)C/C(C)=C/C(=O)O (stereo not given)	< 0.001	
CC1(C)N=C(N)N=C(N)N1c1ccc(CCc2ccccc2)cc1		49.1
CN(C)CCCN1CCC2(CCC(C(C)(C)C)CC2)CC1		2.23
Cc1[nH]nc(C(F)(F)F)c1N=NN1CCOCC1		6.18
C=C(C)[C@@H]1CC[C@]2(C(=O)NC3CCCCC3)CC[C@]3(C)[C@H](CC[C@@H]4[C@@]5(C)CCCNC(C)(C)[C@@H]5CC[C@]43C)[C@@H]12	2120	4.61
S=C(S)NCNC(=S)S.[Zn+2]		> 100
CC(OC(C)(C)C)[C@H](NC(=O)OCC(Cl)(Cl)Cl)C(=O)O (stereo not given in full)		> 100
O=C(O)CCC(NC(=O)c1ccc(Nc2nc3cc(C(F)(F)F)ccc3nc2-c2ccccc2)cc1)C(=O)O (stereo not given)		> 100
c1ccc(CCNc2ccccn2)nc1		> 100
NCc1ccccc1-c1c2nc(c(-c3ccccc3CN)c3ccc([nH]3)c(-c3ccccc3CN)c3nc(c(-c4ccccc4CN)c4ccc1[nH]4)C=C3)C=C2		33.3

system: SF-539 CNS; test: NCI tumour cell line growth inhibition, 48 h

Compound	TGI [µM]	GI50 [nM]
Cn1c(=O)c(-c2ccccc2)c(N=[N+]=[N-])c2ccccc21	> 100	
CCC(/C=C/C1OC(=O)C=CC1C)=C\C(C)C/C=C/C(C)=C/C(C)C(=O)C(C)C(O)C(C)C/C(C)=C/C(=O)O (stereo not given)		0.00202
CC1(C)N=C(N)N=C(N)N1c1ccc(CCc2ccccc2)cc1	82.8	
CN(C)CCCN1CCC2(CCC(C(C)(C)C)CC2)CC1	3.89	
Cc1[nH]nc(C(F)(F)F)c1N=NN1CCOCC1	28.6	
C=C(C)[C@@H]1CC[C@]2(C(=O)NC3CCCCC3)CC[C@]3(C)[C@H](CC[C@@H]4[C@@]5(C)CCCNC(C)(C)[C@@H]5CC[C@]43C)[C@@H]12	3.11	1690
S=C(S)NCNC(=S)S.[Zn+2]	> 100	
O=C(Cn1c[n+](CC(=O)c2ccc(-c3ccccc3)cc2)c2ccccc21)Nc1cccc2cccnc12	3.06	1620
CC(OC(C)(C)C)[C@H](NC(=O)OCC(Cl)(Cl)Cl)C(=O)O (stereo not given in full)	> 100	
O=C(O)CCC(NC(=O)c1ccc(Nc2nc3cc(C(F)(F)F)ccc3nc2-c2ccccc2)cc1)C(=O)O (stereo not given)	> 100	

system: HT29 colon; test: NCI tumour cell line growth inhibition, 48 h

Compound	TGI [µM]	GI50 [µM]
Cn1c(=O)c(-c2ccccc2)c(N=[N+]=[N-])c2ccccc21	49.9	
CCC(/C=C/C1OC(=O)C=CC1C)=C\C(C)C/C=C/C(C)=C/C(C)C(=O)C(C)C(O)C(C)C/C(C)=C/C(=O)O (stereo not given)	13	4.95
CC1(C)N=C(N)N=C(N)N1c1ccc(CCc2ccccc2)cc1	> 100	
CN(C)CCCN1CCC2(CCC(C(C)(C)C)CC2)CC1	1.7	
Cc1[nH]nc(C(F)(F)F)c1N=NN1CCOCC1	16.8	
S=C(S)NCNC(=S)S.[Zn+2]	> 100	
CC1(CCOCc2ccccc2)NC(=O)NC1=O (stereo not given)	> 100	
CC(OC(C)(C)C)[C@H](NC(=O)OCC(Cl)(Cl)Cl)C(=O)O (stereo not given in full)	> 100	
O=C(O)CCC(NC(=O)c1ccc(Nc2nc3cc(C(F)(F)F)ccc3nc2-c2ccccc2)cc1)C(=O)O (stereo not given)	> 69.8	
c1ccc(CCNc2ccccn2)nc1	> 100	
NCc1ccccc1-c1c2nc(c(-c3ccccc3CN)c3ccc([nH]3)c(-c3ccccc3CN)c3nc(c(-c4ccccc4CN)c4ccc1[nH]4)C=C3)C=C2	> 100	
